Laboratory results published in patent US11725005B2, “Compositions and methods for inhibiting kinases” (Inhibikase Therapeutics, Inc., priority 2015, dated 2023).

The molecules below were run on PDGFRa (assay: not given). Conditions: not given.
`Cc1ccnc(-c2cncc(-c3ccnc(Nc4cc(NC(=O)c5ccc(CN6CCN(C)CC6)cc5)ccc4C)n3)c2)c1` [Compound 830] was tested, and the “Percent inhibition PDGFRa” value was 100.
For `Cc1cc(-c2cncc(-c3ccnc(Nc4cc(NC(=O)c5ccc(CN6CCN(C)CC6)cc5)ccc4C)n3)c2)sn1` [Compound 8190], the “Percent inhibition PDGFRa” value was 100.
In the case of `Cc1csc(-c2cncc(-c3ccnc(Nc4cc(NC(=O)c5ccc(CN6CCN(C)CC6)cc5)ccc4C)n3)c2)n1` [Compound 8290], the “Percent inhibition PDGFRa” value is reported as 100.
With `Cc1ccc(NC(=O)c2ccc(CN3CCN(C)CC3)cc2)cc1Nc1nccc(-c2cncc(-c3nncs3)c2)n1` [Compound 8250] the “Percent inhibition PDGFRa” value was 100.
For `Cc1ccc(NC(=O)c2ccc(CN3CCN(C)CC3)cc2)cc1Nc1nccc(-c2cncc(-c3ccn(C)n3)c2)n1` [Compound 832], the “Percent inhibition PDGFRa” value was 100.
With `Cc1cnc(-c2cncc(-c3ccnc(Nc4cc(NC(=O)c5ccc(CN6CCN(C)CC6)cc5)ccc4C)n3)c2)s1` [Compound 8280] the “Percent inhibition PDGFRa” value was 100.

Each molecule was assayed on Cos 7 cells (assay: Cell cytotoxicity CC50 and Therapeutic Index (CC50:EC50)). Conditions: drug titration between 2 nM and 20 μM.
`Cc1ccc(NC(=O)c2ccc(CN3CCN(C)CC3)cc2)cc1Nc1nccc(-c2cncc(-c3nccs3)c2)n1` [Compound 8270] was tested, and the “Cell cytotoxicity: no toxicity up to” value was greater than 20 µM.
In the case of `Cc1ccnc(-c2cncc(-c3ccnc(Nc4cc(NC(=O)c5ccc(CN6CCN(C)CC6)cc5)ccc4C)n3)c2)c1` [Compound 830], the “Cell cytotoxicity: no toxicity up to” value is reported as greater than 20 µM.
`Cc1cc(-c2cncc(-c3ccnc(Nc4cc(NC(=O)c5ccc(CN6CCN(C)CC6)cc5)ccc4C)n3)c2)sn1` [Compound 8190] was tested, and the “Cell cytotoxicity: no toxicity up to” value was greater than 20 µM.
With `Cc1ccc(NC(=O)c2ccc(CN3CCN(C)CC3)cc2)cc1Nc1nccc(-c2cncc(-c3oncc3C)c2)n1` [Compound 809] the “Cell cytotoxicity: no toxicity up to” value was greater than 20 µM.
`Cc1ccc(NC(=O)c2ccc(CN3CCN(C)CC3)cc2)cc1Nc1nccc(-c2cncc(-c3nncs3)c2)n1` [Compound 8250] was tested, and the “Cell cytotoxicity: no toxicity up to” value was greater than 20 µM.
With `Cc1ccc(NC(=O)c2ccc(CN3CCN(C)CC3)cc2)cc1Nc1nccc(-c2cncc(-c3ccn(C)n3)c2)n1` [Compound 832] the “Cell cytotoxicity: no toxicity up to” value was greater than 20 µM.
`Cc1cnc(-c2cncc(-c3ccnc(Nc4cc(NC(=O)c5ccc(CN6CCN(C)CC6)cc5)ccc4C)n3)c2)s1` [Compound 8280] was tested, and the “Cell cytotoxicity: no toxicity up to” value was greater than 20 µM.
